In brackets after ≈: the same amount, converted by molar mass. Where only a bound is given, the exact number is not on record here.

Data set [1] addresses Epidermal growth factor receptor (Homo sapiens, UniProt P00533).
In data set [2] the target is Vascular endothelial growth factor receptor 2 (Homo sapiens, UniProt P35968).
In data set [3] the target is Fibroblast growth factor receptor 1 (Homo sapiens, UniProt P11362).
In data set [4] the target is Platelet-derived growth factor receptor beta (Homo sapiens, UniProt P09619).
Data set [5] is described as follows: Solubility in 20 mM buffered solution after shaking for 24 hr at 22 degree celsius at pH 2. The data set is classed as physicochemical.
The nature of data set [6]: Solubility in 20 mM buffered solution after shaking for 24 hr at 22 degree celsius at pH 6. The data set is classed as physicochemical.
Data set [7] in a line: In vitro cytotoxicity was determined. The following applies: read-out: LD50 (the source's name).

Platelet-derived growth factor receptor beta, sequence (P09619 whole entry): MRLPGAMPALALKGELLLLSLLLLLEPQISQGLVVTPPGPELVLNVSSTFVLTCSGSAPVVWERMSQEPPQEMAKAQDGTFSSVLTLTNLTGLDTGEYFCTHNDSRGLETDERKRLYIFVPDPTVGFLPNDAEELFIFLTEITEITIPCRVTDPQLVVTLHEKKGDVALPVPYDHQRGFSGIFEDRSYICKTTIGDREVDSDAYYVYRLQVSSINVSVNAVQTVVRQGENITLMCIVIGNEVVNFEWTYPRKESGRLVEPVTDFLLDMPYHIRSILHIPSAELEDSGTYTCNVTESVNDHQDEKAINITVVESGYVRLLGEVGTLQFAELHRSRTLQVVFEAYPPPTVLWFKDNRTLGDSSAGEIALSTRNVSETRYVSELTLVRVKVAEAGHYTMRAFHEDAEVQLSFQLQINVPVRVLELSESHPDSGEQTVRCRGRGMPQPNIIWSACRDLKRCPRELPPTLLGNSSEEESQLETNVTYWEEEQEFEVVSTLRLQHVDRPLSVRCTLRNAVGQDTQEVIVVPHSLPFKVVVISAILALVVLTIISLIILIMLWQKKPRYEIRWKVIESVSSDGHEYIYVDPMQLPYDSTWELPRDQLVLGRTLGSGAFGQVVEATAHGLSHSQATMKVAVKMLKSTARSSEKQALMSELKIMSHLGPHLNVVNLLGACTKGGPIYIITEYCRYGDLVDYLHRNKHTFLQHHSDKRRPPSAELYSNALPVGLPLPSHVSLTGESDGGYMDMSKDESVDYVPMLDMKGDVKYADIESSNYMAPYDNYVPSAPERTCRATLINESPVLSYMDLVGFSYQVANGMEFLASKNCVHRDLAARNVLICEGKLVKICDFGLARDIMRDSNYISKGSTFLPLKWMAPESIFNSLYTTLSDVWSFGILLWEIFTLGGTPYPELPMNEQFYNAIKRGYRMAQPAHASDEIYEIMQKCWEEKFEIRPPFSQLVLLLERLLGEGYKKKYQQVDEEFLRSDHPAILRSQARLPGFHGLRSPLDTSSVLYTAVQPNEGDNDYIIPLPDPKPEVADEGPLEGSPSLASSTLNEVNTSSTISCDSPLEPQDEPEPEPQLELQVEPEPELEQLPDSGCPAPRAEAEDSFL
Vascular endothelial growth factor receptor 2, sequence (P35968 whole entry): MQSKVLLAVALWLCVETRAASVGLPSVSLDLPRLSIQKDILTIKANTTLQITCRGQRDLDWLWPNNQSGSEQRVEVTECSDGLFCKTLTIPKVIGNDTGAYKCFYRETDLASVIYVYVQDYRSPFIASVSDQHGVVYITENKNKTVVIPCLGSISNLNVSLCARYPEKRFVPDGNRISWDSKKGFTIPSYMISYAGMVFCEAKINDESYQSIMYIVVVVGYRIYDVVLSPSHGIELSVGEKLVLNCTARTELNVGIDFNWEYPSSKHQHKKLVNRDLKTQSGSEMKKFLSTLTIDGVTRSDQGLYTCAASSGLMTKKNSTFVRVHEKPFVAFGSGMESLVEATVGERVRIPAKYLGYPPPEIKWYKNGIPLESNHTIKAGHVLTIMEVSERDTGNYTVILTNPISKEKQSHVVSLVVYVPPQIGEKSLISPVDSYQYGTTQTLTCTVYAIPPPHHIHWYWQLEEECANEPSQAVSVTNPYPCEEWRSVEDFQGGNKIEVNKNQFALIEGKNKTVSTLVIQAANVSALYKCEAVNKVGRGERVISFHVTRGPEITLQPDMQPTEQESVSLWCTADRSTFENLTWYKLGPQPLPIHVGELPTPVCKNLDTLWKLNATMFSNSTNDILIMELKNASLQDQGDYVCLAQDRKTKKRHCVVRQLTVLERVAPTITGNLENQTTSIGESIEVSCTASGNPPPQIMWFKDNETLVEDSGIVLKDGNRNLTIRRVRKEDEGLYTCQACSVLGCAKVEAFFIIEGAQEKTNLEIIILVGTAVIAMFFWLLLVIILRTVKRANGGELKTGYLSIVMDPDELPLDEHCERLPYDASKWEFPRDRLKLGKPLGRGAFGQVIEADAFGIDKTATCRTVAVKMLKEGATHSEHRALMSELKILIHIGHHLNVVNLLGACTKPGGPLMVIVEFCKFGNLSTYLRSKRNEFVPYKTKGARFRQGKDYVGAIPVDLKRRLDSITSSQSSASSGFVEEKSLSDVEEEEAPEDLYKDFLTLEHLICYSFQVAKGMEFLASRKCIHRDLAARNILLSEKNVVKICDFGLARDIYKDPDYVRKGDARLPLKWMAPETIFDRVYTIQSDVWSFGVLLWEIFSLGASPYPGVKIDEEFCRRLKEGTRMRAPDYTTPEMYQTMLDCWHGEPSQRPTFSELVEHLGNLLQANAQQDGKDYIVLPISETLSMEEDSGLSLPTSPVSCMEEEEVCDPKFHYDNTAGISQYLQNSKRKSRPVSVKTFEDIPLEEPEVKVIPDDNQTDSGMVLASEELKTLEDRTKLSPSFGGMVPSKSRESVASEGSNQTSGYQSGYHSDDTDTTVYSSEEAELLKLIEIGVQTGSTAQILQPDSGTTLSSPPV
Epidermal growth factor receptor, sequence (P00533 whole entry): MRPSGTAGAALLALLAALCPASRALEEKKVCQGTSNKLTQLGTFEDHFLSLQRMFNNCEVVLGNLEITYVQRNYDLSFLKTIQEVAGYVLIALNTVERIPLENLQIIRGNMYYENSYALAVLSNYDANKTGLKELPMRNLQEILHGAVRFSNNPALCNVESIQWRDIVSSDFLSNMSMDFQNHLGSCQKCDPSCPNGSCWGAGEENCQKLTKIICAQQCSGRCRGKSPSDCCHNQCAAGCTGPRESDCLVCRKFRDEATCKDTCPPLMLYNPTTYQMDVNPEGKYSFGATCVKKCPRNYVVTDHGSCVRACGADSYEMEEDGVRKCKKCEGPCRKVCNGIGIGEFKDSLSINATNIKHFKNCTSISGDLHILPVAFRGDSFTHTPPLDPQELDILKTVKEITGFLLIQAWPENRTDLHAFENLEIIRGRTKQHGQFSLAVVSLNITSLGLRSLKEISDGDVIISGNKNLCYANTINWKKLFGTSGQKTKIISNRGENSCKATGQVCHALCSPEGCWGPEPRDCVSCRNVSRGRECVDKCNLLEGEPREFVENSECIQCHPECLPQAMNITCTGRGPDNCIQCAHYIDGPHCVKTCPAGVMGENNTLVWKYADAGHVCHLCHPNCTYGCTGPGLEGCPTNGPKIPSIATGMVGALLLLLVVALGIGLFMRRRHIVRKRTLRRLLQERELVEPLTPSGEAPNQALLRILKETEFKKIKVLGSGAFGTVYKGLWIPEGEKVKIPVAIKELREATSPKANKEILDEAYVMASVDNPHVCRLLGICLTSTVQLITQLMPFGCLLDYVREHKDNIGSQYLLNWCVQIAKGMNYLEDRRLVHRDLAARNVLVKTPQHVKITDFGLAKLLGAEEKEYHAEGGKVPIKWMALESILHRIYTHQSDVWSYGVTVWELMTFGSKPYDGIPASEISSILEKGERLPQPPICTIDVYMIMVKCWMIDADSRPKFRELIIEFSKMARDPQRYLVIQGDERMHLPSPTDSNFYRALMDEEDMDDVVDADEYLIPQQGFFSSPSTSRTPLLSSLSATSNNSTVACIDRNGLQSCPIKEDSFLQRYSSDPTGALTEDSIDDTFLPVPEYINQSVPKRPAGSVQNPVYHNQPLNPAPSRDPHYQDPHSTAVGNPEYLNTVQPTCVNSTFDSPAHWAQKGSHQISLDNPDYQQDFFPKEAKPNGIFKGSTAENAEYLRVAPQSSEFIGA
Fibroblast growth factor receptor 1, sequence (P11362 whole entry): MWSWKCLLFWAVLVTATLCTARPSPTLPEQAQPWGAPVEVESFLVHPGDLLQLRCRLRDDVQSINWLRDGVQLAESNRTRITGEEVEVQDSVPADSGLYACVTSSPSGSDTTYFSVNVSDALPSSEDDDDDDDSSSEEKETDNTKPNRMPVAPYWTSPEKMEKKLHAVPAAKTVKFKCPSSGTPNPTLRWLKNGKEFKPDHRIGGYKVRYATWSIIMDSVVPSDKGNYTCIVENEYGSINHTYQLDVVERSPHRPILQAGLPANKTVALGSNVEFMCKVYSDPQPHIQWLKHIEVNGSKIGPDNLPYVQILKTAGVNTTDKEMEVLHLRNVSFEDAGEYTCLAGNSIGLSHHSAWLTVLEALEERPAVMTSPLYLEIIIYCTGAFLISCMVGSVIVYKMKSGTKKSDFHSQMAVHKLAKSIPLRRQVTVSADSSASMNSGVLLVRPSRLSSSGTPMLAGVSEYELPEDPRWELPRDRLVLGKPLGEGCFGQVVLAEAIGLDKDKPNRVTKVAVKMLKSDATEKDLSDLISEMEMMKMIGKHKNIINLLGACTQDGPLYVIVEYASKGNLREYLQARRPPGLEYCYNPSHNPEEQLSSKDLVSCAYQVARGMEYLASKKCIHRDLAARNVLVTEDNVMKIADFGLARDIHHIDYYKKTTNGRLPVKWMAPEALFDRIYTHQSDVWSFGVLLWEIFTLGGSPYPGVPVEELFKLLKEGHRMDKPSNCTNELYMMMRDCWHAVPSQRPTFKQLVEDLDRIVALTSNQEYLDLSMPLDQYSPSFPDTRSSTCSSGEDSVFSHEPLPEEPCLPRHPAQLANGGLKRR

In the case of `Cc1[nH]c(/C=C2\C(=O)Nc3ccc(F)cc32)c(C)c1C(=O)NCCn1cncn1`, the IC50 in data set [1] is more than 20000 nM; in data set [2], 85 nM; in data set [3], 17100 nM; in data set [4] it was 10 nM. Besides, the results for the thermodynamic solubility at 24 h in data set [5] and in data set [6] were 2 µg/mL (≈ 5.07 µM) and 6 µg/mL (≈ 15.2 µM), respectively. In addition, the CC50 in data set [7] was more than 50000 nM.

Consider `Cc1[nH]c(/C=C2\C(=O)Nc3ccc(F)cc32)c(C)c1C(=O)NCc1ccncc1`, for which the concentration for half-maximal inhibition (IC50) is more than 20000 nM in data set [1], less than 160 nM in data set [2], 3100 nM in data set [3] and 1 nM in data set [4]. In data set [5], this compound yielded a thermodynamic solubility at 24 h of 486 µg/mL (≈ 1240 µM). Further, the CC50 in data set [7] is more than 50000 nM.

Regarding `CCN(CC)CCNC(=O)c1c(C)[nH]c(/C=C2\C(=O)Nc3ccccc32)c1C`, the half-inhibitory concentration (IC50) in data set [1] is more than 20000 nM; in data set [2], 50 nM; in data set [3], 880 nM; in data set [4], 17 nM. Moreover, the thermodynamic solubility at 24 h in data set [5] was 3020 µg/mL (≈ 7940 µM); in data set [6], 511 µg/mL (≈ 1340 µM). Further, the CC50 in data set [7] is more than 50000 nM.

Turning to `CCN(CC)CCNC(=O)c1c(C)[nH]c(/C=C2\C(=O)Nc3ccc(F)cc32)c1C` [SUNITINIB], the solubility (thermodynamic) at 24 h was 2580 µg/mL (≈ 6480 µM) in data set [5] and 364 µg/mL (≈ 913 µM) in data set [6]. The CC50 in data set [7] came to 48900 nM.

`Cc1[nH]c(/C=C2\C(=O)Nc3ccccc32)c(C)c1CCC(=O)O` [ORANTINIB] yielded a thermodynamic solubility at 24 h in data set [5] of less than 5 µg/mL. In data set [7], the CC50 was more than 50000 nM.

With `Cc1[nH]c(/C=C2\C(=O)Nc3ccc(F)cc32)c(C)c1C(=O)NCCN(C)C`, the IC50 in data set [1] is more than 20000 nM; in data set [2] it was 80 nM; in data set [3], 1600 nM; in data set [4] it was 0.5 nM. The thermodynamic solubility at 24 h in data set [5] was determined as 3010 µg/mL (≈ 8130 µM); in data set [6], 75 µg/mL (≈ 202 µM). In addition, in data set [7], the CC50 amounted to 48500 nM.

On to `Cc1[nH]c(/C=C2\C(=O)Nc3ccc(F)cc32)c(C)c1C(=O)NCCN1CCOCC1`, for which the half-maximal inhibitory concentration (IC50) in data set [1] was more than 20000 nM; in data set [2], 90 nM; in data set [3], 2600 nM; in data set [4], 2 nM. Also, the figures for the thermodynamic solubility at 24 h in data set [5] and in data set [6] were 2940 µg/mL (≈ 7140 µM) and 0.3 µg/mL (≈ 0.727 µM), respectively. In addition, in data set [7], the CC50 is more than 50000 nM.

In the case of `Cc1cc(C)c(/C=C2\C(=O)Nc3ccccc32)[nH]1` [SEMAXANIB], the solubility (thermodynamic) at 24 h in data set [5] and in data set [6] was less than 1 µg/mL each time. The CC50 in data set [7] is more than 50000 nM.

As for `Cc1[nH]c(/C=C2\C(=O)Nc3ccccc32)c(C)c1CCCN1CCN(C)CC1`, the 50% inhibitory concentration (IC50) was more than 20000 nM in data set [1], 300 nM in data set [2], 4200 nM in data set [3] and 60 nM in data set [4]. In addition, the CC50 in data set [7] is more than 50000 nM.

In the case of `Cc1[nH]c(/C=C2\C(=O)Nc3ccc(F)cc32)c(C)c1C(=O)NCC1CCN(C)CC1`, the IC50 was determined as 25 nM in data set [2], 200 nM in data set [3] and 3 nM in data set [4]. Moreover, the thermodynamic solubility at 24 h in data set [5] and in data set [6] was more than 250 µg/mL in each case. Also, the CC50 in data set [7] came to 38000 nM.

Turning to `CCN(CC)CCNC(=O)c1c(C)[nH]c(/C=C2\C(=O)Nc3ccc(Br)cc32)c1C`, the IC50 in data set [1] amounted to 10000 nM; in data set [2] it was 32 nM; in data set [4], 5 nM. Besides, the thermodynamic solubility at 24 h in data set [5] is 1300 µg/mL (≈ 2830 µM); in data set [6] it was 101 µg/mL (≈ 220 µM). Moreover, the CC50 in data set [7] is 16300 nM.

On to `Cc1[nH]c(/C=C2\C(=O)Nc3ccc(F)cc32)c(C)c1C(=O)NCCN1CCCC1` [TOCERANIB], for which the IC50 was more than 20000 nM in data set [1], 60 nM in data set [2], 3900 nM in data set [3] and 1 nM in data set [4]. For the same compound, the solubility (thermodynamic) at 24 h in data set [5] was 3320 µg/mL (≈ 8370 µM); in data set [6] it was 9 µg/mL (≈ 22.7 µM). In data set [7], the CC50 worked out at 49000 nM.

For `CCN(CC)CCNC(=O)c1c(C)[nH]c(/C=C2\C(=O)Nc3ccc(Cl)cc32)c1C` [SU-11652], the IC50 in data set [1] is more than 20000 nM; in data set [2], 27 nM; in data set [3], 170 nM; in data set [4], 3 nM. For the same compound, the thermodynamic solubility at 24 h was found to be 3260 µg/mL (≈ 7850 µM) in data set [5] and 186 µg/mL (≈ 448 µM) in data set [6]. The CC50 in data set [7] is 15600 nM.

The values above are taken from ChEMBL document CHEMBL1136732, “Discovery of 5-[5-fluoro-2-oxo-1,2- dihydroindol-(3Z)-ylidenemethyl]-2,4- dimethyl-1H-pyrrole-3-carboxylic acid (2-diethylaminoethyl)amide, a novel tyrosine kinase inhibitor targeting vascular endothelial and platelet-derived growth factor receptor tyrosine kinase” (J Med Chem, 2003).
